Test results taken from the METLIN SMRT retention time set (Domingo-Almenara et al. 2019).

Assay: gradient 5% acetonitrile 3 min, to 50% in 2 min, to 85% in 15 min, held 3 min, 100 µL/min
Details: column: Zorbax Extend-C18 2.1 x 50 mm; eluents: water / acetonitrile, 0.1% formic acid
How it was run: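 Standards, all pure, were combined into mixtures of ~100 molecules and run at 100 μL/min on a Zorbax Extend-C18 column (2.1 × 50 mm, 1.8 μm) with water and acetonitrile, each containing 0.1% formic acid. A coupled quadrupole time-of-flight mass spectrometer operated in positive and negative ionization mode. Retention time values come from computationally picked adduct peaks, each inspected manually.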

For COc1cccc2cc(C(=O)NCc3ccc(S(N)(=O)=O)cc3)oc12, the RP-LC retention time was 669 s.

Molecule COc1ccc(-c2nc(CN3C(=O)C(O)(c4ccccc4)c4ccccc43)c(C)o2)cc1 (stereo not given) has an RP-LC retention time of 1040 s.

For Cc1ccc2[nH]c(=O)c(CCC(=O)NCCCN3CCc4ccccc4C3)cc2c1, the RP-LC retention time was 629 s.

Molecule N#Cc1cccc2sc(C(=O)N=C(N)N)cc12 has an RP-LC retention time of 625 s.

Molecule O=C(C1CCN(S(=O)(=O)c2ccc(-c3noc(C4CC4)n3)cc2)CC1)N1CCc2ccccc21 has an RP-LC retention time of 800 s.

With O=C(CN1CCCCC1c1nc(-c2ccc(F)cc2)no1)NC1CCCCC1 (stereo not given) the RP-LC retention time was 1150 s.

Molecule CCc1noc(NC(C)=O)c1-c1ccc(C)c(S(=O)(=O)NCc2ccc(OC)cc2)c1 has an RP-LC retention time of 807 s.

Work on Cc1ccc(-c2ncccc2CNS(=O)(=O)c2ccc(C#N)cc2)cc1 yielded an RP-LC retention time of 688 s.

In the case of CCc1ccc(NC(=O)CSc2nnc3c4cc(-c5ccc(F)cc5)nn4ccn23)cc1, the RP-LC retention time is reported as 984 s.

In the case of O=C(c1c[nH]c2ccccc12)N1CCC(c2nc(-c3ccccc3)no2)C1 (stereo not given), the RP-LC retention time is reported as 901 s.

Work on COC(=O)C1=CN(c2cc(F)ccc2C)c2cc(F)ccc2S1(=O)=O yielded an RP-LC retention time of 842 s.

Molecule O=C(NCc1ccc(Br)cc1)c1cn2c(n1)CCCC2 has an RP-LC retention time of 633 s.

Cc1ccccc1NC(=O)Cc1cccn1-c1ccc(Cl)cc1 gave an RP-LC retention time of 1040 s.

Molecule CCC(=O)Nc1ccc(OCc2cc(C(=O)NC3CCCC3)no2)cc1 has an RP-LC retention time of 740 s.

For O=C(c1ccccc1[N+](=O)[O-])N1c2nc(-c3ccccc3)nn2C2(CCCCC2)[C@@H]2CCCC[C@@H]21, the RP-LC retention time was 755 s.

For Cc1ccc(-c2nc3nc(C)cc(C)n3c2Nc2ccc(C(C)C)cc2)cc1, the RP-LC retention time was 870 s.

In the case of CC(/C=C1\SC(=S)N(CC(=O)O)C1=O)=C\c1ccccc1, the RP-LC retention time is reported as 1150 s.

In the case of COc1ccccc1-c1noc(C2CCCN2C(=O)c2ccc(NC(C)=O)cc2)n1 (stereo not given), the RP-LC retention time is reported as 713 s.

Work on CCc1nc2ccc(-c3noc(-c4ccsc4)n3)cc2n1CC yielded an RP-LC retention time of 698 s.

Work on COc1ccc(-n2c(CN3CCN(C(=O)NC(C)(C)C)CC3)nc3cccnc32)cc1 yielded an RP-LC retention time of 640 s.

Cc1ccc(-n2ncc3c(N4CCN(C)CC4)ncnc32)cc1C showed an RP-LC retention time of 648 s.

For COc1ccc(C(=O)Nc2nc(-c3ccc4c(c3)NC(=O)CO4)c(C)s2)cc1, the RP-LC retention time was 881 s.

Molecule Cc1cc(C)cc(NC(=O)Cc2c(C(=O)O)c(C)cn2C)c1 has an RP-LC retention time of 739 s.

For CCSc1ccccc1C(=O)N1CCN(CCn2cccn2)CC1, the RP-LC retention time was 568 s.

In the case of COc1ccc(S(=O)(=O)N2CCCC(C(=O)N3CCc4ccccc4C3)C2)cc1Cl (stereo not given), the RP-LC retention time is reported as 1020 s.

Molecule Cc1nn2c(CNS(=O)(=O)c3ccccc3C)c(-c3ccccc3)nc2s1 has an RP-LC retention time of 827 s.

CCn1cc(CN2CC(Oc3ccc(-c4noc(-c5cccnc5)n4)cc3)C2)cn1 showed an RP-LC retention time of 635 s.

CN(C)c1cnc(-n2cc(NC(=O)NCCc3ccccc3)cn2)nc1 gave an RP-LC retention time of 718 s.

CCOC(=O)C1CCN(c2cc3c(cc2NC(=O)CC)n(C)c(=O)c(=O)n3C)CC1 gave an RP-LC retention time of 724 s.

Work on Cc1nc2nc(-c3ccc(C(C)(C)C)cc3)nn2c(C)c1CC(=O)N1CCCCC1C (stereo not given) yielded an RP-LC retention time of 1080 s.

For CCCCCCNC(=O)C1CCN(C(=O)C(C)(C)C)CC1, the RP-LC retention time was 804 s.

CCCN(Cc1ccc(OC)c(OC)c1)Cc1cc(=O)n2cc(C)ccc2n1 showed an RP-LC retention time of 611 s.

CCOC(=O)c1c(C)oc2nc(C)nc(NCc3cccc(Cl)c3)c12 showed an RP-LC retention time of 1330 s.

CCc1ccc(C(=O)CC2(O)C(=O)Nc3ccc(C)cc32)cc1 (stereo not given) gave an RP-LC retention time of 804 s.

Molecule CCN1c2ccc(F)cc2C(=O)NC12CCN(C(=O)Cc1ccccc1C)CC2 has an RP-LC retention time of 846 s.

With O=C(CCC[C@@H]1[C@H]2CCCN3CCC[C@@H](CN1S(=O)(=O)c1cccs1)[C@@H]23)N1CCOCC1 the RP-LC retention time was 588 s.

Cc1cc(F)ccc1NC(=O)c1cc(C2CC2)n2nccc2n1 gave an RP-LC retention time of 1030 s.

Molecule O=C(Cn1cccc1-c1nc(-c2ccc3c(c2)OCO3)no1)Nc1ccc(F)c(F)c1 has an RP-LC retention time of 1100 s.

In the case of CC(C)c1noc(-c2ccn3c(CC(=O)N4CCc5ccccc5C4)nnc3c2)n1, the RP-LC retention time is reported as 822 s.

For CSc1ccc(NC(=O)NC2CCN(c3ccc(C)c(C)c3)C2=O)cc1 (stereo not given), the RP-LC retention time was 897 s.

Molecule CCNC(=O)C1CCCN(c2nc3ncn(CC(=O)Nc4c(C)cc(C)cc4C)c(=O)c3s2)C1 (stereo not given) has an RP-LC retention time of 715 s.

Molecule Cc1ccc(NS(=O)(=O)c2cc3n(c2)CCN(CC(C)C)C3=O)c(C)c1 has an RP-LC retention time of 841 s.

In the case of O=C(Nc1cnc(N2CCCC2)nc1)c1ccccc1C(F)(F)F, the RP-LC retention time is reported as 740 s.

Molecule Cc1ccc(NC(=O)NCC2CCOCC2)cc1 has an RP-LC retention time of 704 s.

For COc1ccc(Cl)cc1NS(=O)(=O)c1cc2c(s1)CCN(C(=O)C1CC1)C2, the RP-LC retention time was 883 s.

Work on O=P1(N(CCCl)CCCl)NCCCO1 (stereo not given) yielded an RP-LC retention time of 724 s.

Cc1cc(NC(=O)c2ccc3c(c2)OCO3)sn1 showed an RP-LC retention time of 682 s.

COc1ccc(C(=O)N2CCN(c3nc(CN4CCOCC4)cs3)CC2)cc1 gave an RP-LC retention time of 833 s.

CCOc1ccccc1NC(=O)N1CCCC(Cn2c(C3CC3)nc3cccnc32)C1 (stereo not given) showed an RP-LC retention time of 725 s.

With CCCN1CCN(C(=O)CSc2nccnc2Sc2ccccc2)CC1 the RP-LC retention time was 662 s.

Cc1ccc(-n2ccnc2SCc2nc(-c3cccc(Br)c3)no2)cc1 gave an RP-LC retention time of 1080 s.

For Cc1ccc(-c2noc(-c3ccc(=O)n(Cc4ccc(Cl)cc4)c3)n2)cc1, the RP-LC retention time was 1230 s.

O=C(Nc1nccs1)C1CCN(C(=O)c2ccccn2)CC1 gave an RP-LC retention time of 555 s.

In the case of COc1ccc(CNC(=O)CS(=O)(=O)c2cccs2)cc1, the RP-LC retention time is reported as 676 s.

In the case of COc1cc(CCC(=O)N2CC(c3noc(C4CCCN4C)n3)C2)on1 (stereo not given), the RP-LC retention time is reported as 570 s.

In the case of CCCCn1cc(S(=O)(=O)NCc2ccccc2Cl)c2cccnc21, the RP-LC retention time is reported as 996 s.

Cc1ccc(NC(=O)CSc2ccc(N3CCCC(C(=O)NC4CC4)C3)nn2)cc1F (stereo not given) showed an RP-LC retention time of 664 s.

With CSc1ccc(Cl)c(-c2nc(-c3ccc4oc(C)nc4c3)no2)c1 the RP-LC retention time was 1260 s.

O=C(NCCc1nc2ccccc2n1CC(=O)N1CCCC1)c1cccnc1 showed an RP-LC retention time of 566 s.

CCCNC(=O)C1CCCN(c2nc3ncn(CC(=O)Nc4cc(F)cc(F)c4)c(=O)c3s2)C1 (stereo not given) gave an RP-LC retention time of 744 s.

O=C(Nc1ccc2c(c1)OCCO2)Nc1ccc2nc3n(c(=O)c2c1)CCC3 gave an RP-LC retention time of 654 s.

With CC(C)NC(=O)c1ccc(OCC2CCN(C(=O)c3ccc(F)c(Cl)c3)CC2)cc1 the RP-LC retention time was 922 s.

Cc1ccccc1CNC(=O)C1(C)CCCN(C(=O)Nc2ccc(F)cc2)C1 (stereo not given) showed an RP-LC retention time of 899 s.

For CCC(C(=O)NCCc1ccc(Cl)cc1)n1cnc2oc(C)c(C)c2c1=O (stereo not given), the RP-LC retention time was 924 s.

With CCN(CC)c1cc(CNC(=O)Nc2cc(OC)ccc2OC)ccn1 the RP-LC retention time was 632 s.

Work on CN(C)C(=O)c1ccc2c(c1)nc(CN(C)C(=O)Nc1cccc(Br)c1)n2C yielded an RP-LC retention time of 642 s.

Cc1cc(Cl)ccc1NC(=O)c1cc(C(C)C)on1 showed an RP-LC retention time of 1090 s.

In the case of CCc1ccc(NC(=O)c2cn(C)nc2S(=O)(=O)N2CCSCC2)cc1, the RP-LC retention time is reported as 1040 s.

Work on Cc1cc(=O)c2cc(C(=O)c3ccccc3)ccc2[nH]1 yielded an RP-LC retention time of 718 s.

CCOc1ccc(-c2nc(-c3ccc4oc(C)nc4c3)no2)cc1OCC gave an RP-LC retention time of 1170 s.

CNC(=O)C1CN(C(=O)Cc2ccc(C)cc2)CC12CCCC2 (stereo not given) showed an RP-LC retention time of 722 s.

In the case of Cc1ccc2c(c1)C1CC(C)(O2)N(c2cccc(C(=O)N3CCN(c4ccccn4)CC3)c2)C(=O)N1 (stereo not given), the RP-LC retention time is reported as 625 s.

Molecule Cc1cc2c(cc1C(=O)NCc1cccs1)OCCCO2 has an RP-LC retention time of 804 s.

Work on CCn1c(C)c(-c2nc(C3CC3)no2)c(S(=O)(=O)N2CCC(C)CC2)c1C yielded an RP-LC retention time of 904 s.

For CCCNC(=O)C1CCCN(c2ccc(=O)n(-c3cccc(F)c3)n2)C1 (stereo not given), the RP-LC retention time was 699 s.

For O=C(c1ccccn1)N1CCCn2nc(-c3ccc(Cl)cc3)cc2C1, the RP-LC retention time was 817 s.

NS(=O)(=O)c1ccc(CCNC(=O)c2cccc(-n3cnnn3)c2)cc1 showed an RP-LC retention time of 617 s.

CCC(=O)N1c2ccccc2NC2=C(C(=O)CC(C)(C)C2)C1c1ccc(C(=O)OC)cc1 (stereo not given) gave an RP-LC retention time of 749 s.

Cc1noc(C)c1S(=O)(=O)N1CCC(OCCOCc2ccccc2)CC1 gave an RP-LC retention time of 1020 s.

Work on CS(=O)(=O)N1CCC(C(=O)NCCc2csc(-c3cccs3)n2)CC1 yielded an RP-LC retention time of 695 s.

For Cc1ccccc1CNC(=O)CCc1c(-c2ccc(Br)cc2)nc2ccccn12, the RP-LC retention time was 722 s.

Work on CCC(C(=O)Nc1cnn(-c2ncc(N(C)C)cn2)c1)c1ccccc1 (stereo not given) yielded an RP-LC retention time of 811 s.

For CCn1ncc(N2CCCC(CC(=O)N3CCSCC3)C2)cc1=O (stereo not given), the RP-LC retention time was 684 s.

CC(C)CN1CCN(C(=O)c2ccc(-c3cccs3)nc2)CC1 showed an RP-LC retention time of 602 s.

With CCN1CCN(CCNC(=O)c2cc(-c3ccc(C)cc3)cn2C)CC1 the RP-LC retention time was 626 s.

With Cc1ccc(-c2noc(-c3cccc(S(=O)(=O)Nc4ccc5c(c4)OCCO5)c3)n2)cc1 the RP-LC retention time was 1140 s.

Molecule CCCCN(CCCNc1nc(C(=O)OCC)nc2ccccc12)c1ccccc1 has an RP-LC retention time of 732 s.

Work on CCS(=O)(=O)Nc1ccc(-c2noc(C(C)NS(=O)(=O)c3ccc(C)cc3)n2)cc1 (stereo not given) yielded an RP-LC retention time of 836 s.

Molecule O=C(c1n[nH]c2ccccc12)N1CCCC1c1nc(-c2cccc(C(F)(F)F)c2)no1 (stereo not given) has an RP-LC retention time of 1330 s.

CCn1c(C(=O)NCCc2c[nH]c3ccccc23)cc2c(-c3cccs3)nn(-c3ccccc3)c21 gave an RP-LC retention time of 1150 s.
